# Experimental data: patent US9169241B2, “Quinolinyloxyphenylsulfonamides” (Max-Planck-Gesellschaft Zur Forderung der Wissenschaften …, priority 2009, dated 2015)
# Where two headings read alike, the source gives them in different places.
# Assays:
# SF126 [1] = experiment: Cell vitality assay (ATP assay, CellTiter-Glo); format: cell-based; settings: Homo sapiens, SF-126; SF126, 72 h; Table IIa; read-out: IC50 ATP-Assay after 72 h SF126
# Method in brief: (§1)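 Steps: seed 1000 cells per well; add compound (0.195–12.5 μM, 7 points) or DMSO; incubate 72 h; equilibrate to room temperature ~30 min; add reagent, shake 2 min, stand 10 min; read luminescence. IC50 relative to DMSO-control ATP.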
# U118 [2] = experiment: Cell vitality assay (ATP assay, CellTiter-Glo); format: cell-based; settings: U118, 72 h; Table IIa; read-out: IC50 ATP-Assay after 72 h U118
# Method in brief: as §1
# Hs578T [3] = experiment: Cell vitality assay (ATP assay, CellTiter-Glo); format: cell-based; settings: Homo sapiens, Hs-578T, 72 h
# Method in brief: as §1
# indicated cell line = experiment: Wound healing migration assay (Table IV); format: cell-based; settings: compounds at 12.5, 6.25, 3.125 μM, 48 h-72 h
# Method in brief: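 Cells seeded at 150000/24 well, grown to monolayer overnight, scratched with a pipette tip, then treated with compound at 12.5, 6.25 or 3.125 μM versus DMSO. Stopped by crystal violet fixation at 48-72 h once control wounds closed; IC50 taken as 50% wound size between t0 and t48 or t72.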
# C8161 = experiment: Apoptosis assay (Cellomics, nucleus condensation); format: cell-based; settings: Homo sapiens, Table III, read-out: Apoptosis induction in C8161
# Method in brief: (§2)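 Cells seeded at 5000 per well were stained live with Hoechst 33342, and nuclear condensation was quantified per nucleus by automated fluorescence imaging alongside cell counts. Compound was tested at 12.5, 6.25, 3.125, 1.56, 0.78 and 0.39 μM against a DMSO control, with reads at 24 h and 48 h.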
# U118 [4] = experiment: Apoptosis assay (Cellomics, nucleus condensation); format: cell-based; settings: Table III, read-out: Apoptosis induction in U118
# Method in brief: as §2
# Hs578T [5] = experiment: Apoptosis assay (Cellomics, nucleus condensation); format: cell-based; settings: Homo sapiens, Hs-578T, Table III, read-out: Apoptosis induction in Hs578T
# Method in brief: as §2
# U138 = experiment: Apoptosis assay (Cellomics, nucleus condensation); format: cell-based; settings: Table III, read-out: Apoptosis induction in U138
# Method in brief: as §2
# SF763 = experiment: Apoptosis assay (Cellomics, nucleus condensation); format: cell-based; settings: Table III, read-out: Apoptosis induction in SF763
# Method in brief: as §2
# Hs578T [6] = experiment: Matrigel outgrowth assay/branching assay; format: cell-based; settings: Homo sapiens, Hs-578T; HS578T cell line; Table Ib; read-out: Total branching inhibition in Matrigel HS578T
# Method in brief: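 Cells (5000/well) were seeded onto polymerized 3 mg/ml Matrigel with compound at 3.125, 1.56 or 0.78 μM, or DMSO. Imaging by inverted microscopy at 48, 72 and 96 h scored invasive branching. Only concentrations giving total branching inhibition counted as positive.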
# SF126 [7] = experiment: Apoptosis assay (Cellomics, nucleus condensation); format: cell-based; settings: Homo sapiens, SF-126, Table III, read-out: Apoptosis induction in SF126
# Method in brief: as §2
# [8] = HS578T cell line, Table Ib, read-out: IC50 ATP-Assay HS578T after 72 h
# [9] = Hs578T, Table IIa, read-out: IC50 ATP-Assay after 72 h Hs578T
# [10] = Homo sapiens, C8161 cells, read-out: IC50 Wound healing Assay C8161
# [11] = SF763 cells, read-out: IC50 Wound healing Assay SF763
SMILES,IC50 (SF126 [1]) [µM],IC50 (U118 [2]) [µM],IC50 (Hs578T [3]; [8]) [µM],IC50 (Hs578T [3]; [9]) [µM],"IC50 (indicated cell line; Homo sapiens, A 172, A172 cells, read-out: IC50 Wound healing Assay A172) [µM]","IC50 (indicated cell line; Homo sapiens, SF-126, SF126 cells, read-out: IC50 Wound healing Assay SF126) [µM]",IC50 (indicated cell line; [10]) [µM],IC50 (indicated cell line; [11]) [µM],"IC50 (indicated cell line; U118 cells, read-out: IC50 Wound healing Assay U118) [µM]",IC50 (C8161) [µM],IC50 (U118 [4]) [µM],IC50 (Hs578T [5]) [µM],IC50 (U138) [µM],IC50 (SF763) [µM],IC50 (Hs578T [6]) [µM],melting point [°C],IC50 (SF126 [7]) [µM]
"COc1cc2c(Oc3ccc(NS(=O)(=O)c4ccccc4[N+](=O)[O-])cc3F)ccnc2cc1OCCCN1CCCCC1 [Example 7, N-{3-Fluoro-4-[6-methoxy-7-(3-piperidin-1-yl-propoxy)-quinolin-4-yloxy]-phenyl}-2-nitro-benzenesulfonamide]",12.5 to 50,12.5 to 50,≤ 12.5,≤ 12.5,≤ 12.5,≤ 12.5,≤ 12.5,≤ 12.5,≤ 12.5,≤ 12.5,12.5 to 50,≤ 12.5,≤ 12.5,≤ 12.5,10 to 25,113 to 116,
"COc1cc2c(Oc3ccc(NS(=O)(=O)c4cccc(Oc5ccccc5)c4)cc3F)ccnc2cc1OCCCN1CCN(C)CC1 [Example 14, N-(3-Fluoro-4-{6-methoxy-7-[3-(4-methyl-piperazin-1-yl)-propoxy]-quinolin-4-yloxy}-phenyl)-3-phenoxy-benzenesulfonamide]",≤ 12.5,12.5 to 50,,,,,12.5 to 50,12.5 to 50,,≤ 12.5,12.5 to 50,≤ 12.5,≤ 12.5,≤ 12.5,,140 to 141,≤ 12.5
"COc1cc2c(Oc3ccc(NS(=O)(=O)c4ccccc4Cl)cc3F)ccnc2cc1OCCCN1CCN(C)CC1 [Example 29, 2-Chloro-N-(3-fluoro-4-{6-methoxy-7-[3-(4-methyl-piperazin-1-yl)-propoxy]-quinolin-4-yloxy}-phenyl)-benzenesulfonamide]",≤ 12.5,≤ 12.5,,12.5 to 50,,,≤ 12.5,≤ 12.5,,≤ 12.5,,≤ 12.5,12.5 to 50,≤ 12.5,≤ 10,96 to 98,≤ 12.5
"COc1cc2c(Oc3ccc(NS(=O)(=O)c4cc(Cl)cc(Cl)c4OC)cc3F)ccnc2cc1OCCCN1CCCCC1 [Example 34, 3,5-Dichloro-N-{3-fluoro-4-[6-methoxy-7-(3-piperidin-1-yl-propoxy)-quinolin-4-yloxy]-phenyl}-2-methoxy-benzenesulfonamide]",,,≤ 12.5,,,,≤ 12.5,12.5 to 50,,≤ 12.5,≤ 12.5,12.5 to 50,≤ 12.5,≤ 12.5,≤ 10,173 to 175,≤ 12.5
"COc1cc2c(Oc3ccc(NS(=O)(=O)c4cc(Cl)cc(Cl)c4OC)cc3F)ccnc2cc1OCCCN1CCN(C)CC1 [Example 35, 3,5-Dichloro-N-(3-fluoro-4-{6-methoxy-7-[3-(4-methyl-piperazin-1-yl)-propoxy]-quinolin-4-yloxy}-phenyl)-2-methoxy-benzenesulfonamide]",,,≤ 12.5,,,,≤ 12.5,≤ 12.5,,≤ 12.5,≤ 12.5,≤ 12.5,12.5 to 50,≤ 12.5,≤ 10,183 to 185,≤ 12.5
"COc1cc2c(Oc3ccc(NS(=O)(=O)c4ccc(F)c(Cl)c4)cc3F)ccnc2cc1OCCCN1CCCC(C)C1 (centres unmarked) [Example 57, 3-Chloro-4-fluoro-N-(3-fluoro-4-{6-methoxy-7-[3-(3-methyl-piperidin-1-yl)-propoxy]-quinolin-4-yloxy}-phenyl)-benzenesulfonamide]",,,≤ 12.5,,,,≤ 12.5,12.5 to 50,,≤ 12.5,≤ 12.5,≤ 12.5,≤ 12.5,12.5 to 50,≤ 10,124 to 126,≤ 12.5
"COc1cc2c(Oc3ccc(NS(=O)(=O)c4cccc5ccccc45)cc3F)ccnc2cc1OCCCN1CCCC(C)C1 (centres unmarked) [Example 58, Naphthalene-1-sulfonic acid (3-fluoro-4-{6-methoxy-7-[3-(3-methyl-piperidin-1-yl)-propoxy]-quinolin-4-yloxy}-phenyl)-amide]",,,≤ 12.5,,,,12.5 to 50,≤ 12.5,,≤ 12.5,12.5 to 50,12.5 to 50,≤ 12.5,≤ 12.5,≤ 10,131 to 133,≤ 12.5
"COc1cc2c(Oc3ccc(NS(=O)(=O)c4ccccc4F)cc3F)ccnc2cc1OCCN1CCOCC1 [Example 81, 2-Fluoro-N-{3-fluoro-4-[6-methoxy-7-(2-morpholin-4-yl-ethoxy)-quinolin-4-yloxy]-phenyl}-benzenesulfonamide]",,,≤ 12.5,,,,≤ 12.5,12.5 to 50,,≤ 12.5,≤ 12.5,≤ 12.5,≤ 12.5,≤ 12.5,≤ 10,168 to 169,≤ 12.5
"COc1cc2c(Oc3ccc(NS(=O)(=O)c4c(F)cccc4F)cc3F)ccnc2cc1OCCN1CCOCC1 [Example 82, 2,6-Difluoro-N-{3-fluoro-4-[6-methoxy-7-(2-morpholin-4-yl-ethoxy)-quinolin-4-yloxy]-phenyl}-benzenesulfonamide]",,,≤ 12.5,,,,≤ 12.5,≤ 12.5,,≤ 12.5,≤ 12.5,≤ 12.5,≤ 12.5,≤ 12.5,≤ 10,182 to 183,≤ 12.5
"COc1cc2c(Oc3cccc(NS(=O)(=O)c4ccccc4C(F)(F)F)c3)ccnc2cc1OCCCN1CCN(C)CC1 [Example 102, N-(3-{6-Methoxy-7-[3-(4-methyl-piperazin-1-yl)-propoxy]-quinolin-4-yloxy}-phenyl)-2-trifluoromethyl-benzenesulfonamide]",,,≤ 12.5,,,,12.5 to 50,≤ 12.5,,≤ 12.5,≤ 12.5,≤ 12.5,≤ 12.5,≤ 12.5,10 to 25,155 to 156,≤ 12.5
